In patent EP0195433A1, “Amide derivatives processes for preparing them and use thereof” (GREEN CROSS CORPORATION, priority 1985, dated 1986):

Key:
granuloma pouch = assay: Anti-inflammatory activity, granuloma pouch method; assay type: in vivo, SD male rats; settings: 25 mg/kg/day orally for 8 consecutive days, eight days after croton oil injection; for Weight of Pouch: wet weight
Protocol: Pouches were made under the dorsal skin of SD male rats (body weight: 150 - 180 g) by injecting 20 ml of N2 gas in accordance with the method described in E. Itoga and Y. Miyake; Oyo yakuri, 66, 316 (1970). The rats were subsequently injected with 1 ml of 1% croton oil dissolved in cottonseed oil. Eight days after injection, the wet weight of each pouch and the volume of exudate therefrom were measured. Each of the test compounds was administered orally for 8 consecutive days on a single-dose-a-day basis..

carrageenan paw edema = assay: Anti-inflammatory activity, carrageenan paw edema method; assay type: in vivo, SD male rats; settings: 25 mg/kg, i.p., 30 minutes before carrageenan; four hours after injection
Protocol: SD male rats (body weight: 150 - 180 g) were starved overnight and 25 mg/kg of a selected test compound was administered intraperitoneally to each rat. Thirty minutes later, 0.1 ml of a 1.5% solution of carrageenan in physiological saline was injected under the skin of the paw of a hind leg. Four hours after injection, the volume of the treated leg was measured with a mercury manometer and compared with the value prior to carrageenan injection in order to calculate the percentages of edema and its inhibition. Each of the test compounds was administered in a concentration of 5 mg/ml as a suspension in 5% gum arabic in physiological saline.

[1] = test system: secretion of gastric juice; assay: Inhibition of gastric juice secretion, pyloric ligation (method of Shay et al.); assay type: in vivo, Wistar male rats; settings: 25 mg/kg, i.p., 4 hours after pyloric ligation; for Total Peptic Activity: casein as substrate; for Total Acid Output: titration with 0.02N NaOH
Protocol: The activity of each of the test compounds in inhibiting the secretion of gastric juice was measured by pyloric ligation in accordance with the method of Shay et al. described in H. Shay, S.A. Komarov, S.S. Fels et al.; Gastroenterology, 5, 43 (1945). Groups each consisting of 8 - 10 Wistar male rats weighing 150 - 200 g which had been starved for 48 hours were subjected to abdominal incision under ether anesthetization. After pyloric ligation, the incised abdomen of each animal was closed and the animal was kept away from food and water for 4 hours. The test compound was suspended in 5% gum arabic (in physiological saline) to give a concentration of 5 mg/ml, and the suspension was administered intraperitoneally to each rat in a dose of 25 mg/kg immediately after the closure of the incised abdomen. Four hours later, each rat was sacrificed with chloroform and the stomach was extracted. The gastric juice contained in the stomach was withdrawn and checked for its volume, total acidity and total pepsin activity.
The total acidity was determined by titration with 0.02N NaOH using phenolphthalein as an indicator. The total pepsin activity was determined in accordance with the method of Anson; Brit. J. Pharmacol., 13, 54 (1958) using casein as a substrate.

Aspirin ulcers = assay: Aspirin ulcer; assay type: in vivo, Wistar male rats; settings: 20 mg/kg intraperitoneally, 7 hours; for Ulcer index: aspirin 150 mg/kg orally, total length of ulcers
Protocol: Aspirin ulcers were produced in Wistar male rats (body weight: 150 - 200 g) in accordance with the method described in S. Okabe, K. Takeuchi et al.; Jpn. J. Pharmacol., 24, 363 (1974).
The rats were starved for 24 hours and subjected to pyloric ligation. Immediately thereafter, 150 mg/kg of aspirin suspended in 5% gum arabic was administrered orally to each rat which was simultaneously injected with a selected test compound (20 mg/kg) intraperitoneally.
The rats were kept away from food and water for 7 hours. Thereafter, the stomach was extracted from each animal under ether anesthetization and fixed in formalin. The total length of the ulcers occurring in the glands of the extracted stomach was measured and used as an ulcer index.

Stress ulcers = assay: Stress ulcer (restraint and water immersion); assay type: in vivo, Wistar male rats; settings: 20 mg/kg intraperitoneally; for Ulcer index: restrained and immersed in water (22 ± 1°C) for 7 hours
Protocol: Stress ulcers were induced in Wistar male rats in accordance with the method described in K. Takagi and S. Okabe; Jpn. J. Pharmacol., 18, 9 (1968).
The procedures of (2) were repeated except that the rats were restrained immediately after the administration of a selected test compound and immersed in water (22 ± 1°C) for 7 hours.

HCl-ethanol ulcers = assay: HCl-ethanol ulcer; assay type: in vivo, Wistar male rats; settings: for Percent inhibition: 20 mg/kg intraperitoneally; for Ulcer index: 20 mg/kg intraperitoneally 2 hours before 1.5 ml of 15 mM HCl in 60% ethanol orally, 1 hour
Protocol: HCl-ethanol ulcers were induced in Wistar male rats in accordance with the method described in S. Okabe, S. Ueki et al.; Oyo Yakuri, 27, 829 (1984).
The procedures of (2) were repeated except that 2 hours after the intraperitoneal injection of a selected test compound, 1.5 ml of 15 mM HC1 in 60% ethanol was administrered orally to each rat, which thereafter was kept for an additional 1 hour.

Acetic acid ulcers = assay: Acetic acid ulcer; assay type: in vivo, Wistar male rats; settings: 14 consecutive days
Protocol: .Acetic acid ulcers were induced in Wistar male rats in accordance with the method described in K. Takagi, S. Okabe et al.,; Jpn. J. Pharmacol., 19, 418 (1969).
Starting on the day of operation, each of the test compounds was administered orally to each rat for 14 consecutive days on a two-dose-a-day basis. The rats were starved for 24 hours after administration of the final dose. They then were sacrificed with chloroform and the stomach was extracted from each animal and fixed in formalin. The product of the length and breadth of each […] was determined and used as an ulcer index.

## CCCCCC=CC(=O)NCCSSCCNC(=O)C=CCCCCC [Compound 3, [SCH2CH2NH-COCH=CH(CH2)4CH3]2]
Granuloma pouch
  Volume of Exudate: 8.5 mL
  Weight of Pouch: 4.34 g
Carrageenan paw edema
  Percent inhibitaion: 29.7%
  Percentage of edema: 36.3%

## CCCCCCCCC=CC(=O)O [2-Undecenoic acid, reference compound]
[1]
  Gastric Volume: 2.46 ml/100 g wt.
  Total Peptic Activity: 159.8 mg as tyrosine/ 100 g wt.
  Total Acid Output: 318.1 μ Eq/100 g wt.

## CCCCCCCCC=CC(=O)NCCSSCCNC(=O)C=CCCCCCCCC [Compound 1, [SCH2CH2NH-COCH=CH(CH2)7CH3]2]
[1]
  Gastric Volume: 2.10 ml/100 g wt.
  Total Peptic Activity: 139.9 mg as tyrosine/ 100 g wt.
  Total Acid Output: 229.2 μ Eq/100 g wt.

## CCCCCCCCCCC=CC(=O)NCCSSCCNC(=O)C=CCCCCCCCCCC [Compound 7, [SCH2CH2NH-COCH=CH(CH2)9CH3]2]
Carrageenan paw edema
  Percent inhibitaion: 30.7%
  Percentage of edema: 33.4%

## CCCCCCCCCCC=CC(=O)NCCSCC(N)=O [Compound 8, NH2COCH2SCH2CH2NH-COCH=CH(CH2)9CH3]
Carrageenan paw edema
  Percent inhibitaion: 49.6%
  Percentage of edema: 24.3%

## CCCCCC=CC(=O)NCCSCC(N)=O [Compound 4, NH2COCH2SCH2CH2NH-COCH=CH(CH2)4CH3]
Granuloma pouch
  Volume of Exudate: 10.6 mL
  Weight of Pouch: 3.81 g
Carrageenan paw edema
  Percent inhibitaion: 45.2%
  Percentage of edema: 28.3%

## CCCCCCCC=CC(=O)NCCSCC(N)=O [Compound 6, NH2COCH2SCH2CH2NH-COCH=CH(CH2)6CH3]
Aspirin ulcers
  Percent inhibition: 49.7%
  Ulcer index: 8.6
Stress ulcers
  Percent inhibition: 54.3%
  Ulcer index: 13.3
HCl-ethanol ulcers
  Percent inhibition: 69.7%
  Ulcer index: 12.5
[1]
  Gastric Volume: 0.93 ml/100 g wt.
  Total Peptic Activity: 81.5 mg as tyrosine/ 100 g wt.
  Total Acid Output: 91.1 μ Eq/100 g wt.
Acetic acid ulcers; 100 x 2 mg/kg/day orally
  Percent healing: 21.0%
  Ulcer index: 45.8
Acetic acid ulcers; 200 x 2 mg/kg/day orally
  Percent healing: 27.4%
  Ulcer index: 42.1
Acetic acid ulcers; 400 x 2 mg/kg/day orally
  Percent healing: 34.0%
  Ulcer index: 38.3

## CCCCCCCCC=CC(=O)NCCSCC(N)=O [Compound 2, NH2COCH2SCH2CH2NH-COCH=CH(CH2)7CH3]
Aspirin ulcers
  Percent inhibition: 76.4%
  Ulcer index: 4.0
Stress ulcers
  Percent inhibition: 69.1%
  Ulcer index: 9.0
HCl-ethanol ulcers
  Percent inhibition: 70.5%
  Ulcer index: 12.2
[1]
  Gastric Volume: 0.97 ml/100 g wt.
  Total Peptic Activity: 70.9 mg as tyrosine/ 100 g wt.
  Total Acid Output: 97.4 μ Eq/100 g wt.
